Measurements published in ChEMBL document CHEMBL1201862, “PubChem BioAssay data set” (2004).
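The compound was tested at five concentrations on cells cultured in 96-well plates, with a 48-hour exposure period. Abbreviation: GI50, concentration required for 50% inhibition of growth.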 Calls of active or inactive are those of the source. No stated cut-off is given here; in the data, active = GI50 up to about 1.1 µM and inactive = higher.

Assays:
Test in all cases: NCI anticancer screen, dose series, 48 h
LXFL 529 = system: LXFL 529
KM-20L2 = system: KM-20L2
RXF 631 = system: RXF 631
HOP-18 = system: HOP-18
XF498 = system: XF498
DMS-273 = system: DMS-273
M19-MEL = system: M19-MEL
DMS-114 = system: DMS-114
SNB-78 = system: SNB-78

Row | SMILES | GI50 (LXFL 529) | GI50 (KM-20L2) | GI50 (RXF 631) | GI50 (HOP-18) | GI50 (XF498) | GI50 (DMS-273) | GI50 (M19-MEL) | GI50 (DMS-114) | GI50 (SNB-78)
1 | CC1(C)CC(Nc2ccc(Nc3ccccc3)cc2)CC(C)(C)N1 | 25.1 µM (inactive) | 26.1 µM (inactive) | 18.6 µM (inactive) | > 100 µM (inactive) | 22.5 µM (inactive) | 41.7 µM (inactive) | 35.2 µM (inactive) | 21.2 µM (inactive) | 66.2 µM (inactive)
2 | CCSC1(SCC)CCN(/C=N/C(C)(C)C)C1 | > 100 µM (inactive) | > 100 µM (inactive) | > 100 µM (inactive) | > 100 µM (inactive) | > 100 µM (inactive) | > 100 µM (inactive) | > 100 µM (inactive) | 44.7 µM (inactive) | > 100 µM (inactive)
3 | COc1ccc2c(c1OC)C1=C(C2=O)c2cc3c(cc2CCN1)OCO3 | 33.1 µM (inactive) | 17.9 µM (inactive) |  | 52.5 µM (inactive) | 40.3 µM (inactive) | 24.2 µM (inactive) | 42.1 µM (inactive) | 22.6 µM (inactive) | 89.7 µM (inactive)
4 | Cc1ccc(N(C(=O)CC(=O)N2N=C(c3ccccc3)C(/N=N/c3ccc([N+](=O)[O-])cc3)C2=O)C(=O)c2ccc(Cl)cc2)cc1 (configuration not stated) | 15.5 µM (inactive) | 23.3 µM (inactive) |  | 27.4 µM (inactive) | 21.8 µM (inactive) | 5.94 µM (inactive) | 26 µM (inactive) | 20 µM (inactive) | 6.95 µM (inactive)
5 | COc1cc(Nc2nc3ccc(C(F)(F)F)cc3nc2-c2ccccc2)cc(OC)c1OC | 23.1 µM (inactive) | 5.85 µM (inactive) |  | < 0.01 µM (active) |  | 12 µM (inactive) |  |  | > 100 µM (inactive)
6 | O=C1C(c2cnc3ccccc3n2)=C(O)c2ccccc21 | > 100 µM (inactive) | > 100 µM (inactive) | > 100 µM (inactive) |  |  | 0.281 µM (active) | > 100 µM (inactive) | > 100 µM (inactive) | > 100 µM (inactive)
7 | CC(C)CC(=O)NS(=O)(=O)c1ccccc1 | > 100 µM (inactive) | > 100 µM (inactive) | > 100 µM (inactive) | > 100 µM (inactive) | > 100 µM (inactive) |  | > 100 µM (inactive) | > 100 µM (inactive) | > 100 µM (inactive)
8 | COC1(OC)C2(Cl)C(Cl)=C(Cl)C1(Cl)C1C2C2CC1(C(=O)O)c1ccccc12 (configuration not stated) | 14.6 µM (inactive) | 24.2 µM (inactive) | 22.4 µM (inactive) | 41.2 µM (inactive) |  | 19 µM (inactive) | 18.9 µM (inactive) | 17.5 µM (inactive) | 
9 | CCOC(=O)C(C)(c1c(C)[nH]c2ccccc12)c1c(C)[nH]c2ccccc12 | 51.4 µM (inactive) | 16.4 µM (inactive) |  |  | 21.8 µM (inactive) | 14.1 µM (inactive) |  | 15.7 µM (inactive) | 17.5 µM (inactive)
10 | CC(O[Si](C)(C)C)C1C=CC(C)n2c(=O)n(-c3ccccc3)c(=O)n21 (configuration not stated) |  |  |  | > 100 µM (inactive) |  |  | > 100 µM (inactive) | > 100 µM (inactive) | > 100 µM (inactive)
11 | CCOc1cc[n+]([C-](C#N)C#N)cc1 | > 100 µM (inactive) | > 100 µM (inactive) | > 100 µM (inactive) |  | > 100 µM (inactive) | > 100 µM (inactive) | > 100 µM (inactive) | > 100 µM (inactive) | > 100 µM (inactive)
12 | Cc1cccc2c1NC(c1c(C)[nH]c3ccccc13)C2 (configuration not stated) | > 100 µM (inactive) | > 100 µM (inactive) | > 100 µM (inactive) | > 100 µM (inactive) | 51.9 µM (inactive) |  | > 100 µM (inactive) | 56.1 µM (inactive) | 
13 | CCCCc1c2c(nc3c1CCc1cc4cc5c(nc4nc1-3)-c1nc3c(c(CCCC)c1CC5)CCCC3)CCCC2 | 18 µM (inactive) | 22.8 µM (inactive) |  |  |  | 42.2 µM (inactive) | 54 µM (inactive) | 26.8 µM (inactive) | > 100 µM (inactive)
14 | CCCC12Cc3c(OC)ccc(OC)c3CC(Cc3c(OC)ccc(OC)c31)C2=O (configuration not stated) | 10.2 µM (inactive) |  |  |  |  | > 100 µM (inactive) | > 100 µM (inactive) | 34.8 µM (inactive) | > 100 µM (inactive)
15 | Cc1cc2c(=O)cc(-c3cccs3)oc2c(C(=O)O)c1C | 49.4 µM (inactive) | > 100 µM (inactive) |  |  |  | > 100 µM (inactive) | > 100 µM (inactive) |  | 
16 | C=C1c2[nH]c3c([N+](=O)[O-])c(OC)ccc3c2CCN1C(C)=O | > 100 µM (inactive) | > 100 µM (inactive) |  |  |  | > 100 µM (inactive) |  | > 100 µM (inactive) | > 100 µM (inactive)
17 | CC(C)(C)C1=CC(=N/N=c2\scc(-c3ccccc3)n2-c2ccccc2)C=C(C(C)(C)C)C1=O | > 100 µM (inactive) | > 100 µM (inactive) |  | > 100 µM (inactive) | > 100 µM (inactive) | > 100 µM (inactive) | > 100 µM (inactive) | > 100 µM (inactive) | > 100 µM (inactive)
18 | Cc1ccc(NC(=O)C2C(=O)N(c3ccc(C)c(C)c3)C(=O)/C2=N/O)cc1C (configuration not stated) | > 100 µM (inactive) | > 100 µM (inactive) | > 100 µM (inactive) | > 100 µM (inactive) | > 100 µM (inactive) | > 100 µM (inactive) |  | > 100 µM (inactive) | > 100 µM (inactive)
19 | O=C(NNc1ccccc1)/C(=C/c1ccc2c(c1)OCO2)NC(=O)c1ccccc1 | > 100 µM (inactive) | > 100 µM (inactive) |  | > 100 µM (inactive) | > 100 µM (inactive) | > 100 µM (inactive) |  |  | > 100 µM (inactive)
20 | CC(C)(C)C(=O)CC(=O)C(C)(C)C.CC(C)(C)C(=O)CC(=O)C(C)(C)C.[SiH4] | 1.56 µM (inactive) | 1.62 µM (inactive) |  | 2.36 µM (inactive) | 0.519 µM (active) | 0.446 µM (active) | 1.86 µM (inactive) | 0.566 µM (active) | 
21 | O=C1Cc2c([nH]c3ccccc23)-c2ccccc2N1 [PAULLONE] | 19.1 µM (inactive) | 21.4 µM (inactive) |  | > 100 µM (inactive) | 31.6 µM (inactive) | 31.1 µM (inactive) | 53.1 µM (inactive) |  | > 100 µM (inactive)
